According to patent US20240307409A1, “ARGININE METHYLTRANSFERASE INHIBITOR AND USE THEREOF” (Cytosinlab Therapeutics Co., Ltd., priority 2021, published 2024):

What was measured:
Toledo cells = experiment: Toledo cell proliferation inhibition assay; type: cell-based; details: Homo sapiens, Toledo, 144 h; six-day assay, CellTiter-Glo
Experimental: • A. Purpose: to determine the effects of compounds on Toledo cells through a six-day cell proliferation assay. • B. Reagents and materials: • 1. Cell culture medium: RPMI 1640+10% FBS • 2. 384-well cell culture plate (Corning, item #3764) • 3. 0.4% Taipan Blue Staining Solution (Thermo Fisher, item #T10282) • 4. cell counting plate (Thermo Fisher, item #C10228) • 5. 50 ml reagent reservoir (Corning, item #4870) • 6. 50 ml conical sterile polypropylene centrifuge tube (Thermo Fisher, item #339653) • 7. Automatic cell counter (Thermo Fisher, item #AMQAX1000) • 8. CellTiter-Glo Luminescent Cell Viability Detection Reagent (Promega, item #G7572) • 9. SpectraMax i3x Multi-Mode Enzyme Labeling Instrument (Megaman Molecular Instruments, item #5024062) • C. Experimental method • 1. Resuspending the cells with a pipette. • 2. 0.4% Taipan blue staining solution and Toledo cells were mixed in equal proportion, and the cells were counted using an automatic cell counter. • 3. Toledo cells were diluted to a final concentration of 2000 cells per well and transferred to a 50 ml reagent reservoir. • 4. Diluted Toledo cells were added to a 384-well cell culture plate, 40 ul per well. • 5. The cells were shortly centrifuged and settled. • 6. The cells were incubated in a 37° C., 5% CO2 cell culture incubator. • 7. The substrate in the CellTiter-Glo Luminescent Cell Viability Detection Reagent was mixed with the solution. • 8. After six days, the 384-well cell culture plate was taken from the incubator and 20 ul of configured CellTiter-Glo reagent was added to each well. • 9. 384-well cell culture platewasmixed in an orbital shaker for 30 minutes. • 10. Signal of luminescence was detected with a SpectraMax i3x multi-mode enzyme labeling instrument.

PRMT1 = PRMT1 (Homo sapiens, UniProt Q99873); experiment: PRMT1 enzyme activity test; type: biochemical; details: 0.5 nM PRMT1, 3H-SAM, peptide
PRMT1, sequence (Q99873 whole entry): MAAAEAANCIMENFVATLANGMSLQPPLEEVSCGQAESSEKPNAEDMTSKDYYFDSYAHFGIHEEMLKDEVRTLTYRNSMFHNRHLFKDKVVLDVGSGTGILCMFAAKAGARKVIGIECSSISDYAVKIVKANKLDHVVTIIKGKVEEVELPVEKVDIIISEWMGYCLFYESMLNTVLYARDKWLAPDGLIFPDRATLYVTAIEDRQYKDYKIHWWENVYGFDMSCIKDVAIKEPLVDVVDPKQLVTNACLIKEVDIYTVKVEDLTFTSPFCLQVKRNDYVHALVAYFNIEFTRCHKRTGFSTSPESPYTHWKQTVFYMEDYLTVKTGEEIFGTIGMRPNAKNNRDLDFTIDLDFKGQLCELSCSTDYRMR
Experimental: PRMT1 enzyme activity test were performed in a buffer prepared on the same day 5 consisting of 10 mMTirs-HCl (pH=8.0), 0.01% Tween-20 and 1 mM DTT. The compounds were prepared to the highest inhibitor concentration ultimately required in the 100× reaction with 100% DMSO and then transferred to one well of a 384-well Echo plate (Echo-eligible 384-well polypropylene microplates 2.0, transparent, flat-bottomed) and sequentially diluted in the next well with a 3-fold dilution of 100% DMSO, and so on, with a total of 10 concentrations based on Precision. 100% DMSO was added to two empty wells to serve as control well without compound and control well without enzyme in the same 384-well Echo plate. 250 nL of compound was transferred from each well of the 384-well Echo plate to a 384-well assay plate (384-well polypropylene storage microplate) via the Echo 550 liquid processor. For wells with compounds and control well without compound, a mixture (15 uL) containing PRMT1 enzyme was added to the 384-well assay plate. For control wells without enzyme, the mixture containing the assay buffer (15 uL) was added instead. The compounds were allowed to incubate with PRMT1 for 15 minutes at room temperature, and then a mixture containing ^3H-SAM and peptide (10 uL) was added to start the reaction (final volume=25 uL). The final concentrations of the components were as follows: 0.5 nM for PRMT1, 0.25 uM for ^3H-SAM, 0.1 uM for the peptide, and 1% DMSO. After 120 min of incubation, the assay was terminated by the addition of non-radiolabeled SAM (5 uL) to a final concentration of 125 uM, which diluted 3H-SAM to a level at which its incorporation into the peptide substrate was no longer detected. 25 μL of the reaction solution from the 384-well assay plate was then transferred to a 384-well detection plate (Streptavidin FlashPlate HTS PLUS, high volume, 384 wells). The biotinylated peptide was allowed to bind to the surface of the antibiotic protein streptavidin for at least 60 minutes at room temperature. The Flashplate was then washed three times with 0.1% Tween-20 in a BioTek plate washer. Plates were read on a microplate counter (MicroBeta2) to measure the amount of ^3H-labeled peptide bound to the surface of the detection plate, measured in counts per minute (cpm).
The raw data were copied from the Reader and the inhibition values were calculated in Excel by Equation (1), Equation (1): Inh %=(CPMmax−CPMcmpd)/(CPMmax−CPMmin)*100, wherein the Max signal was obtained from the enzyme-substrate interaction and the Min signal was obtained from the substrate. IC50 values were obtained by fitting the data through equation (2) using XLFit add-in for Excel version […]. Equation (2): Y=Bottom+(Top-Bottom)/(1+((IC50/X)[…])), wherein, Y represents inhibition percentage and X represents compound concentration.

SMILES	IC50 (Toledo cells) [µM]	IC50 (PRMT1) [µM]
CCOCC1CCN(c2cccnc2CN(C)CCNC)CC1 [P218]	1 to 5	< 0.05
CNCCN(C)Cc1ncccc1N1CCC(Oc2ccncc2)CC1 [P267]	1 to 5	< 0.05
CNCCN(C)Cc1cc(C(=O)N(C)C)ccc1C1CCN(c2cccc(C)c2)CC1 [P100]	≥ 5	≥ 0.5
CNCCN(C)Cc1ncccc1N1CCc2cnc(NC)nc2CC1 [P320]	≥ 5	< 0.05
CNCCN(C)Cc1ccc2[nH]nc(C)c2c1C1CCc2cc(F)c(F)cc2CC1 [P146, N1-((4-(2,3-difluoro-6,7,8,9-tetrahydro-5H-benzo[7]cyclopenten-7-yl)-3-methyl-1H-indazol-5-yl)methyl)-N1,N2-dimethylethane-1,2-diamine]	< 1	< 0.05
CNCCN(C)Cc1cc(F)c2[nH]ncc2c1C1CCN(c2cccc(C)c2)CC1 [P183]	< 1	< 0.05
CNCCN(C)Cc1ncccc1C1CCN(c2ccc3c(c2)OC(C)(C)O3)CC1 [P234]	1 to 5	0.05 to 0.5
CCOCC1(COCC)CCN(c2cccnc2CN(C)CCNC)C1 [P248]	1 to 5	0.05 to 0.5
CNCCN(C)Cc1ccccc1C1CCN(C(C)C)CC1 [P027]	1 to 5	< 0.05
CNCCN(C)Cc1cc(F)ccc1C1CCN(c2cccc(C)c2)CC1 [P020]	< 1	< 0.05
CNCCN(C)Cc1ncc(N)nc1C1CCN(c2cccc(C)c2)CC1 [P292, N-((5-amino-3-(1-(m-tolyl)piperidin-4-yl)pyrazin-2-yl)methyl)-N,N′-dimethyl-1,2-ethyle nediamine]	< 1	< 0.05
CNCCN(C)Cc1ccc(C)nc1C1CCN(c2cc(C)cc(F)c2)CC1 [P066]	< 1	< 0.05
CNCCN(C)Cc1ccccc1C1CCCCC1 [P024]	< 1	< 0.05
CNCCN(C)Cc1ccc(C)nc1C1CCN(c2ccc(F)c(Cl)c2)CC1 [P064]	< 1	< 0.05
CNCCN(C)Cc1ncccc1N1CCC(N2CCCCC2)CC1 [P126]	1 to 5	< 0.05
CNCCN(C)Cc1ncccc1N1CCc2nc(N(C)C)nc(C)c2CC1 [P272]	1 to 5	0.05 to 0.5

SMILES	IC50 (Toledo cells) [µM]	IC50 (PRMT1) [µM]
CNCCN(C)Cc1ncccc1N1CCC(NC2CCOCC2)CC1 [P263]	≥ 5	≥ 0.5
CNCCN(C)Cc1cc(F)ccc1C1CCN(CCc2ccc(C(F)(F)F)cc2)CC1 [P010]	1 to 5	< 0.05
CNCCN(C)Cc1ccc(C(=O)NC)cc1C1CCN(c2cccc(C)c2)CC1 [P160]	< 1	< 0.05
CNCCN(C)Cc1ncccc1C1CCN(c2ccccc2)CC1 [P108]	< 1	< 0.05
CNCCN(C)Cc1ccc2nn(C)cc2c1C1CCc2cc(F)c(F)cc2CC1 [P104]	< 1	< 0.05
CNCCN(C)Cc1ccc(F)cc1C1CCCN(c2ccccc2)CC1 (centres unmarked) [P017]	1 to 5	< 0.05
CNCCN(C)Cc1ccc2c(c1C1CCN(c3cccc(C)c3)CC1)CC(=O)N2 [P180]	< 1	< 0.05
CNCCN(C)Cc1ncccc1N1CCC(Nc2ccccc2)CC1 [P194]	1 to 5	< 0.05
CNCCN(C)Cc1ncccc1C1CCN(c2cccnc2)CC1 [P214]	1 to 5	< 0.05
CNCCN(C)Cc1ncccc1N1CCC(Nc2ccncn2)CC1 [P319]	≥ 5	< 0.05
CNCCN(C)Cc1ncccc1C1CCN(c2ccccc2C(N)=O)CC1 [P298]	1 to 5	< 0.05
CNCCN(C)Cc1ncccc1N1CCCCC1 [P177]	1 to 5	< 0.05
CNCCN(C)Cc1ccccc1C1=CCC2(CCCCO2)CC1 (centres unmarked) [P055]	1 to 5	< 0.05
CCOCc1cccc(N2CCC(c3cccnc3CN(C)CCNC)CC2)c1 [P134]	1 to 5	< 0.05
CNCCN(C)Cc1ncccc1C1CCN(c2ncccn2)CC1 [P290]	1 to 5	< 0.05
